The target in data set [1] is T1, D3dgpA (human intestinal bacterium PUE, UniProt A0A3Q9WWX8).
T1 construct: gene dgpA; full length, 367 residues; His6-tag; pET-duet 1 (EcoRI/SalI), E. coli BL21 (DE3), Ni-NTA; about 45 kD; hexamer in solution; co-purifies with NAD(H)
T1 sequence (A0A3Q9WWX8 1-367): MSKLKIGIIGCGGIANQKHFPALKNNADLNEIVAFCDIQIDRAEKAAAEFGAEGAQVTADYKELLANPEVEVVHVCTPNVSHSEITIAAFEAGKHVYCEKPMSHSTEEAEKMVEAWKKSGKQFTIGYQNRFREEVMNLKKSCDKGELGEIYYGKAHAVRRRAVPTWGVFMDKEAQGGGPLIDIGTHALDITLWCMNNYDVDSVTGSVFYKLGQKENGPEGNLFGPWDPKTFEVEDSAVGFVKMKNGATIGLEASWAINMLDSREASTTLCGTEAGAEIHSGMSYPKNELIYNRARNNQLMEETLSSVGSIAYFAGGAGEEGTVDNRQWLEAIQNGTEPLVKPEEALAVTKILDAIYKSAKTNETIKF
The data set can be described thus: HPLC of […]”-oxo-puerarin formation with and without monosaccharide. It counts as biochemical. The settings on record: 400 eq puerarin and methyl β-D-3-oxo-glucopyranoside, 800 eq monosaccharide to enzyme; 5 mM HEPES pH 7.5, 36.5°C, 10 min.

Data set [2] has as its target D3dgpA, Gfo/Idh/MocA family glycoside oxidoreductase (dgpA cloned from Dorea sp. MRG-IFC3) (Dorea sp. MRG-IFC3). Briefly: not stated; purified His6-tagged D3dgpA in solution; the method is shown only in Supplementary Figure S5.
Data set [3] addresses T1, D3dgpA. Briefly: HPLC analysis of nucleotide co-purified with enzyme. It counts as binding. The settings on record: bound in purified enzyme as isolated.
Substrate in the data set “purified protein”: O=c1c(-c2ccc(O)cc2)coc2c([C@@H]3O[C@H](CO)[C@@H](O)[C@H](O)[C@H]3O)c(O)ccc12
The data set can be described thus: purified protein. It counts as biochemical, human intestinal bacterium PUE. The settings on record: co-substrate 760 μM methyl β-D-3-oxo-glucopyranoside, 5 mM HEPES pH 7.5, 5 mM NaCl, 36.5°C.

Consider `CO[C@H]1O[C@H](CO)[C@@H](O)[C@H](O)[C@H]1O` [methyl α-glucopyranoside], for which the relative inhibition entry at D3dgpA [1] is reported as “decreased in the order of D-glucose > methyl ß-glucoside > methyl α-glucoside ≈ levoglucosan”. As usually defined, the stoichiometry N is a count of units in the complex or per binding partner. For “D3dgpA, Gfo/Idh/MocA family glycoside oxidoreductase (dgpA cloned from Dorea sp. MRG-IFC3) (enzyme)”, in data set [2], the stoichiometry N was found to be 6. Regarding `O[C@@H]1[C@@H](O)[C@@H]2OC[C@@H](O2)[C@H]1O` [levoglucosan], on D3dgpA [1], the relative inhibition entry is listed as “decreased in the order of D-glucose > methyl ß-glucoside > methyl α-glucoside ≈ levoglucosan”. On the same count and under the same terms, to `OC[C@H]1OC(O)[C@H](O)[C@@H](O)[C@@H]1O` (stereo partly drawn) [D-glucose] belongs “D-glucose exhibited the most inhibitory effects on the oxidation of puerarin”; to `CO[C@@H]1O[C@H](CO)[C@@H](O)[C@H](O)[C@H]1O` [methyl β-glucopyranoside], “decreased in the order of D-glucose > methyl ß-glucoside > methyl α-glucoside ≈ levoglucosan”. As for `NC(=O)c1ccc[n+]([C@@H]2O[C@H](COP(=O)(O)OP(=O)(O)OC[C@H]3O[C@@H](n4cnc5c(N)ncnc54)[C@H](O)[C@@H]3O)[C@@H](O)[C@H]2O)c1` [NAD^+], on D3dgpA [3], the “HPLC analysis of nucleotide co-purified with enzyme” value was “The purified D3dgpA was found to contain an almost equimolar amount of NAD(H)”.

B1: D3dgpA (human intestinal bacterium PUE) (protein)
chain: T1 sequence (A0A3Q9WWX8 1-367)
notes: full length, 367 residues; His6-tag; pET-duet 1 (EcoRI/SalI), E. coli BL21 (DE3), Ni-NTA; about 45 kD; hexamer in solution; co-purifies with NAD(H)
A word on the Km: it is the substrate concentration at which the rate is half of its maximum. Usually kcat stands for the number of substrate molecules converted per active site and unit of time at saturation. Turning to B1, in “purified protein”, the Km was 250 µM and the turnover number (kcat) is 32 s⁻¹.
